# Reference: patent US20240409501A1, “CYRSTALLINE FORMS OF RIP1 INHIBITOR” (SIRONAX LTD., priority 2021, published 2024)
# Entries after “also recorded” stand apart in the source; their conditions may differ.
# Assays:
# Assay type in all cases: physicochemical
# [1] = Approximate solubility in 20 solvent systems at RT
# Method: Approximate solubility of N-(3,5-difluorobenzyl)-N-hydroxy-2,2-dimethylbutanamide (817506-01-A) was measured in 20 solvent systems at RT. Approximately 2 mg of the sample was added into a 3-mL glass vial. Solvents as shown in Table 36 were then added stepwise (50/50/200/700/1000 μL) into the vials until the solids were dissolved visually or a total volume of 2 mL was reached. Solubility results summarized in Table 36 were used to guide the solvent selection in preparing the solid forms as disclosed herein.
# [2] = Photo stability under white light and ultraviolet (ICH guideline)
# Method: Photo stability of Type A (817506-48-A2) was assessed under both white light (1,200,000 Lux-hrs) and ultraviolet (200 W·hrs/m^2) conditions according to the ICH guideline. […] Only an endotherm at about 95° C. was observed on the DSC curves (FIGS. 42-43).
# [3] = Hygroscopicity, DVS isotherm at 25° C. between 0 and 95% RH
# Method: To investigate the solid from stability as a function of humidity, a DVS isotherm plot of Type A (817506-48-A2) was collected at 25° C. between 0 and 95% RH. […] (onset) after the DVS test.
# DVS was measured Via an SMS (Surface Measurement Systems) DVS Intrinsic. The relative humidity at 25° C. was calibrated against deliquescence point of LiCl. Mg(NO3)2 and KCl.
# [4] = Equilibrium solubility of Type A in H2O at RT
# Method: Equilibrium solubility of Type A in H2O was measured at RT. Specifically, 10.0 mg of a Type A sample (817506-48-A2) was suspended into 1 mL of H2O (˜1000 rpm) at RT. After 24 hrs, the suspension was centrifuged (10000 rpm, 5 min, RT) followed by filtration (0.45 μm PTFE membrane). The supernatant (first few drops were discarded) was analyzed for HPLC solubility and pH, and the residual solids were used for XRPD analysis.
# (§1) An Agilent 1290 UPLC with DAD detector and Agilent 1260 HPLC with VWD detector were use and detailed chromatographic conditions for purity and solubility analysis are listed in Table 42 and Table 43.
# [5] = Solid state stability (XRPD, DSC, HPLC after storage); settings: for % of Initial: HPLC purity
# Method: To evaluate the solid state stability, a Type A sample (817506-48-A2) was stored under 80° C. for one day, and 25° C./60% RH and 40° C./75% RH for one week each. […] DSC characterization results were shown from FIG. 35 to FIG. 37. Only one endotherm at about 95° C. was observed, indicating the solids under all the conditions were pure Type A.
# as §1
# [6] = Form conversion of Type C on vacuum drying (XRPD); settings: vacuum dried at 50° C.
# From the text: Type C of N-(3,5-difluorobenzyl)-N-hydroxy-2,2-dimethylbutanamide (817506-10-A10) was obtained via liquid vapor diffusion of a DMSO solution of a starting material (817506-01-A) in H2O atmosphere.
# [7] = White light (1,200,000 Lux-hrs)
compound,measurement,setting,value
"CCC(C)(C)C(=O)N(O)Cc1cc(F)cc(F)c1 [N-(3,5-difluorobenzyl)-N-hydroxy-2,2-dimethylbutanamide]",solubility,"[1]; organic solvent or mixture, thermodynamic from solid, 1,4-Dioxane, RT",> 46 mg/mL
same,solubility,"[1]; organic solvent or mixture, thermodynamic from solid, 2-MeTHF, RT",2.2 to 7.3 mg/mL
same,solubility,"[1]; organic solvent or mixture, thermodynamic from solid, ACN, RT",> 50 mg/mL
same,solubility,"[1]; organic solvent or mixture, thermodynamic from solid, Acetone, RT",> 46 mg/mL
same,solubility,"[1]; organic solvent or mixture, thermodynamic from solid, CHCl3, RT",> 50 mg/mL
same,solubility,"[1]; organic solvent or mixture, thermodynamic from solid, DCM, RT",> 50 mg/mL
same,solubility,"[1]; organic solvent or mixture, thermodynamic from solid, DMAc, RT",21 to 42 mg/mL
same,solubility,"[1]; organic solvent or mixture, thermodynamic from solid, DMSO, RT",> 42 mg/mL
same,solubility,"[1]; organic solvent or mixture, thermodynamic from solid, EtOAc, RT",> 44 mg/mL
same,solubility,"[1]; organic solvent or mixture, thermodynamic from solid, EtOH, RT",> 40 mg/mL
same,solubility,"[1]; organic solvent or mixture, thermodynamic from solid, IPA, RT",> 42 mg/mL
same,solubility,"[1]; organic solvent or mixture, thermodynamic from solid, IPAC, RT",> 50 mg/mL
same,solubility,"[1]; organic solvent or mixture, thermodynamic from solid, MIBK, RT",> 50 mg/mL
same,solubility,"[1]; organic solvent or mixture, thermodynamic from solid, MTBE, RT",2.3 to 7.7 mg/mL
same,solubility,"[1]; organic solvent or mixture, thermodynamic from solid, MeOH, RT",> 46 mg/mL
same,solubility,"[1]; organic solvent or mixture, thermodynamic from solid, NMP, RT",2.4 to 48 mg/mL
same,solubility,"[1]; organic solvent or mixture, thermodynamic from solid, THF, RT",25 to 50 mg/mL
same,solubility,"[1]; organic solvent or mixture, thermodynamic from solid, Toluene, RT",20 to 40 mg/mL
same,solubility,"[1]; organic solvent or mixture, thermodynamic from solid, n-Heptane, RT",< 1 mg/mL
same,solubility,"[1]; water, thermodynamic from solid, H2O, RT",< 1.3 mg/mL
"CCC(C)(C)C(=O)N(O)Cc1cc(F)cc(F)c1 [Type A, N-(3,5-difluorobenzyl)-N-hydroxy-2,2-dimethylbutanamide]",Form,[2]; UV (200 W·hrs/m^2),Type A
same,Purity (area %),[2]; UV (200 W·hrs/m^2),100.0 area %
same,Form,[2]; [7],Type A
same,Purity (area %),[2]; [7],100.0 area %
same,form change after photo stability evaluation,"[2]; both white light and ultraviolet, XRPD and DSC",No crystalline form change or HPLC purity decrease; also recorded: no form change
same,purity decrease after photo stability evaluation,"[2]; white light and ultraviolet, HPLC",no purity decrease
same,water uptake (DVS plot),[3]; 25° C./80VRH,0.1%
same,water uptake (DVS),[3]; 80% RH/25° C.,about 0.10%
same,hygroscopicity,[3]; DVS at 25° C.,non-hygroscopic
same,form change after the DVS test,[3]; XRPD before and after DVS,no form change
same,Form change,"[4]; after suspending in H2O at RT for about 24 hrs, XRPD of residual solids",no crystalline type change and no form change and No
same,pH,[4]; supernatant after suspension in H2O at RT for 24 hrs,8.7
same,solubility at 24 h,"[4]; water, thermodynamic from solid, equilibrium solubility in H2O, RT, 24 hrs, HPLC",~0.15 mg/mL
same,Final Form,[5]; 25° C./60% RH/1 w,Type A
same,% of Initial,[5]; 25° C./60% RH/1 w,100.0%
same,Final Form,[5]; 40° C./75% RH/1 w,Type A
same,% of Initial,[5]; 40° C./75% RH/1 w,100.0%
same,Final Form,[5]; 80° C./1 d,Type A
same,% of Initial,[5]; 80° C./1 d,100.0%
same,form change or decrease in purity,"[5]; all conditions: 80° C. one day, 25° C./60% RH and 40° C./75% RH one week each",No crystalline form change or HPLC purity decrease; also recorded: No form change or decrease in purity
"CCC(C)(C)C(=O)N(O)Cc1cc(F)cc(F)c1 [Type C, N-(3,5-difluorobenzyl)-N-hydroxy-2,2-dimethylbutanamide]",form after drying,[6],converted to Type A
